Entries after “also recorded” stand apart in the source; their conditions may differ.
How the values were obtained:
[1] = tested on: JAK/STAT pathway in T cells (primary); assay: Inhibition of JAK/STAT pathway in T cells stimulated with various cytokines; format: cell-based; conditions: T cells (primary) stimulated by various cytokines
Protocol: FIG. 7A is a graph of the % of subjects to achieve EASI50 over time (Day 1 to Day 29) for a placebo and Compound 1 in the doses of 20 mg, 40 mg and 80 mg. FIG. 7B is a graph of the % of subjects to achieve EASI75 over time (Day 1 to Day 29) for a placebo and Compound 1 in the doses of 20 mg, 40 mg and 80 mg. […] FIG. 8A is a graph of the % CFB (percentage change from baseline) for EASI (decrease) for the placebo and Compound 1 in the doses of 20 mg, 40 mg and 80 mg. FIG. 8B is a graph of the % CFB for BSA (body surface area) (decrease) for the placebo and Compound 1 in the doses of 20 mg, 40 mg and 80 mg. FIG. 8C is a graph of the % CFB for IGA 0-1 (Investigator's Global Assessment) for the placebo and Compound 1 in the doses of 20 mg, 40 mg and 80 mg. FIG. 9 is a graph of day 15 plasma concentration for Compound 1 in the doses of 20 mg, 40 mg and 80 mg. […] In FIG. 10, the IC50 values were determined in biochemical kinase assays using purified partial or full length enzymes. FIG. 11 is a chart showing inhibition of Compound 1 in JAK/STAT pathway in T cells stimulated with various cytokines.

[2] = tested on: subjects with moderate-to severe atopic dermatitis; assay: Phase 1b study in atopic dermatitis: safety and tolerability; format: in vivo, human
Protocol: The study conducted was a randomized, double-blind, placebo-controlled, multicenter, sequential dose escalation study in subjects with moderate-to severe atopic dermatitis. The study included a screening period (up to 30 days) and a treatment period for 4 weeks with a 14 day follow up period that concluded with an end-of-study visit. Three sequential cohorts of 20, 40 and 80 mg QD were evaluated. At each dose level a total of 12 subjects were enrolled with 9 subjects receiving Compound 1, and 3 subjects receiving matching placebos.
Assessment of safety: Safety was assessed by AEs, vital signs, 12-lead ECG, physical examination, and laboratory safety assessments.

[3] = tested on: lesional skin of subjects with atopic dermatitis; assay: Phase 1b study in atopic dermatitis: skin biopsy biomarkers; format: in vivo, human
Source text: Assessment of Pharmacodynamics/Biomarker Parameters: • 1. Change from baseline in inflammatory markers in serum (including immune markers and CRP) • 2. Change from baseline in molecular skin biomarkers (inflammatory and barrier) • 3. Change from baseline in cellular markers (including reduction in inflammatory cells) • 4. Change from baseline in epidermal thickness and barrier markers in skin biopsies. Assessments of Efficacy Investigator's Global Assessment
For each subject, a maximum of four skin biopsies were collected during this study. Two punch biopsy samples (one from lesional skin and one from non-lesional skin) were collected at Day 1 and one punch biopsy was collected from the same lesional skin (outside the scar of the previous biopsies) at Day 15 (optional for subjects) and Day 29.
A panel of biological markers were assessed to determine the effect of Compound 1 on the disease process. These may include, but are not limited to: • Serum cytokines and inflammatory markers • Molecular skin biomarkers (inflammatory and barrier) • Circulating and tissue resident cellular phenotyping • Epidermal thickness and barrier markers from skin biopsies • Other biomarkers related autoimmune or inflammatory diseases Results: […]

With `N#CCC1CCN(c2nc(Nc3ccc(N4CCC(O)CC4)cc3)c3c(=O)[nH]ncc3n2)CC1` [Compound 1, 2-(1-(4-((4-(4-hydroxypiperidin-1-yl)phenyl)amino)-5-oxo-5,6-dihydropyrimido[4,5-d]pyridazin-2-yl)piperidin-4-yl)acetonitrile] the “inhibition of JAK/STAT pathway” value [1] was “strong inhibition”, the “changes in chemistry lab parameters” value ([2]; in vivo) was “No clinically significant changes in chemistry lab parameters except asymptomatic, mild-to-moderate transient elevations of CPK” and the “changes in hematologic lab parameters including platelets, neutrophils and lymphocytes” value ([2]; in vivo) was “No clinically significant changes”. For the same compound, the “changes in lipid profile” value ([2]; in vivo) was “No changes in lipid profile”, the “serious infections or thromboembolic events” value ([2]; in vivo) was “No serious infections or thromboembolic events occurred” and the tolerability ([2]; patients with moderate to severe atopic dermatitis, 20, 40, 80 mg once daily) was “well tolerated; also recorded: very well tolerated at all dose levels”. For the same compound, the “most common adverse events” value ([2]; predominantly Day 1) was “transient, mild headache and nausea”, the “T cell (CD3+) infiltration into all layers of the skin” value ([3]; 40 and 80 mg, Day 29) was “reduced” and the “Myeloid DC (CD11c+) infiltration into all layers of the skin” value ([3]; 40 and 80 mg, as early as Day 15) was “reduced”. The “cutaneous biomarkers (cellular infiltrates, immune and hyperplasia markers)” value ([3]; particularly in the mid and high dose) was “improvements in epidermal hyperplasia and cellular infiltrates observed as early as Day 15; also recorded: down regulates inflammatory pathways; also recorded: reversal of cutaneous biomarkers of inflammation” and the total skin thickness ([3]; skin biopsies, 20, 40 and 80 mg) was “Reductions in total skin thickness can be observed as early as Day 15”.

— patent publication US12036224B2, “Formulations, methods, kits, and dosage forms for treating atopic dermatitis and for improved stability of an active pharmaceutical ingredient” (Libertas Bio, Inc., priority 2017, dated 2024)
